The test deals with PC3 human prostate cells. The experiment in a line: In vivo treatment model using a locally administered cell cycle inhibitor with local radiation. Conditions: FIG. 16; for percent reduction in tumor volume: one week after treatment.

Each structure is given as a SMILES string.

Description: This animal model is used to determine the effectiveness of a locally administered cell cycle inhibitor (e.g., paclitaxel) in conjunction with a locally administered radiation source in treating a proliferative disease, specifically, a cancer. The relative change in tumor volume measured in tumor bearing mice receiving various treatments will be used to gauge the therapy's effectiveness relative to use of local radiation alone or locally administered cell cycle inhibitor alone.
The methods used are as follows. Cancer cells (specifically PC3) human prostate cells, American Type Culture Collection, Rockville Md.) are maintained in DMEM solution with 5% heat-inactivated fetal calf serum. Male SCID mice are inoculated with approximately 1×10^6 cells subcutaneously in the flank region. The tumor injection sites are followed by visual inspection or palpation. Tumor volume is measured using calipers. The tumor is allowed to grow until it reaches a treatable volume of 100-200 mm^3.
At this time the mice are treated as follows. Approximately six brachytherapy seeds are implanted adjacent to the tumor to deliver a local radiation dose of 25-40 Gy (I^125 radiation source). A polymeric paste (100 μl) containing 50 μg paclitaxel (0.5% w/w) is injected subcutaneously adjacent to or into the tumor. The following treatment groups were studied (10 mice per group). 1) Control paste without paclitaxel and non-radioactive (cold) seeds. 2) Control paste and radioactive seeds. 3) 0.5% w/w paclitaxel loaded paste and cold seeds. 4) 0.5% w/w paclitaxel loaded paste and radioactive seeds.
Tumor size is measured at twice-weekly intervals using calipers. An investigator blinded to the experimental groups will conduct the measurements. Caliper measured dimensions may be taken in two (length (L), width (W)) or three dimensions (Height (H)). […]
The animal data are analyzed as follows. The means and standard deviations of the tumor measurements are determined and plotted from the initial day of caliper measurement until the final measurement. […]

In the case of `CC(=O)O[C@H]1C(=O)[C@@]2(C)[C@H]([C@H](OC(=O)c3ccccc3)[C@]3(O)C[C@H](OC(=O)[C@H](O)[C@@H](NC(=O)c4ccccc4)c4ccccc4)C(C)=C1C3(C)C)[C@]1(OC(C)=O)CO[C@@H]1C[C@@H]2O` [paclitaxel], the tumor volume entry (one week after treatment with locally administered radiation (I-125) and locally administered paclitaxel, n=9 per treatment) is listed as “decreased”. Moreover, the “percent reduction in tumor volume” value by setting is: (only one of the two treatments (paclitaxel alone)) “lesser reduction”; (paclitaxel paste (0.5% w/w) and I-125 seeds given in combination) “greatest”.

The values above are taken from patent US20080058579A1, “Compositions and methods for treating disease utilizing a combination of radioactive therapy and cell-cycle inhibitors” (Angiotech International AG, priority 1999, published 2008).
